Patent US7422854B1, “Cholesterol reduction signature” (priority 2002, dated 2008)

What was measured:
livers of rats = assay: Signature Projection Score (SPS): match of liver gene expression to the Cholesterol Reduction Signature; assay type: in vivo; conditions: rat liver, maximum of training treatments = 100
Description: (§1) After determination of the MTD and FED for a compound, each compound was dissolved in a vehicle for administration on day 1 of the study (additional daily doses were stored as frozen aliquots from this initial formulation). Each compound was administered to three individual male Sprague-Dawley rats for each of the two doses (MTD and FED) for one of four different times (0.25 day, 1 day, 3 days, and 5 days), yielding a total of up to 24 animals per compound study. Vehicle choice was based on solubility of the compound, effect of food on adsorption, and the vehicles used in the literature reports examined during the FED selection investigations, described above. Generally, the route and vehicle in which the FED was defined are used. When there was a choice of routes and vehicles, oral routes were chosen over injection routes. Many compounds, especially oncolytics, are only administerable intravenously. In such cases, the compound was administered as an intravenous formulation into the tail vein. Orally administered compounds were given dissolved in either water, 1% carboxymethycellulose (CMC) or corn oil. Intravenously and intraperitoneally administered compounds were given in 0.9% saline. Subcutaneously administered compounds were given in corn oil. Animal body weights were determined at 1 day and, where appropriate, at 4 days, before necropsy, and clinical observations were made on a daily basis. Control animals were dosed with vehicle only. Three male animals were used for each dose and time combination used for the compound treatment.
(§2) Tissue harvest and handling: After the allocated treatment time, the tissues from the animals were harvested. […] All the tissues collected were divided to provide samples for histopathological analyses, and the remainder of each tissue was then snap-frozen. […] The following blood constituents were measured: Blood Urea Nitrogen (BUN), Creatinine (CRE), Glucose (GLU), Alanine Transaminase (ALT), Aspartate Aminotrans-ferase (AST), Alkaline Phosphatase (ALP), Total Bilirubin (TBI), Sodium (SOD), Potassium (POT), Chloride (CHL), Phosphorus (PHO), Total Protein (TPR), Albumin (ALB), Cholesterol (CHO), Creatine Phosphokinase (CPK), Lactate Dehydrogenase (LDH), Carbon Dioxide (CO2), Uric Acid (UA), and Lipase. […] The parameters were measured using a Baker 9000 blood cell analysis instrument according to the manufactures instructions. The following blood constituents were measured: Leukocyte count (WBC), Differential Leukocyte counts, Erythrocyte count (RBC), Hemoglobin concentration (HGB), Hematocrit (HCT), Mean Corpuscular Volume (MCV), Mean Corpuscular Hemoglobin (MCH), Mean Corpuscular Hemoglobin Concentration (MCC), Thrombocyte Count (PLC). Histopathology: Histopathological analyses of hematoxylin and eosin-stained tissue sections were performed and peer-reviewed by board-certified (Diplomate, American College of Veterinary Pathologists) veterinary pathologists. Preparation of Enriched mRNA: Punch Biopsies were Taken from the Frozen Tissues and were completely homogenized before being processed using the MagNA Pure robot. (Roche Diagnostics Corp., Indianapolis, Ind.) in combination with the MagNA Pure LC RNA Isolation kit II (Roche Diagnostics Corp). The amount of lysis buffer was adjusted to allow 1 ml per 50 mg for liver tissue, or 1 ml per 80 mg for all other tissues. After complete homogenization and before loading of the samples into the 32-well MagNA Pure plate, the samples were syringed 5-6 times using a 20-gauge 3-ml syringe to ensure a smooth solution for robotic processing. Tissue sample processing was performed in duplicate wells (loading 150 μl of homogenized sample and 150 μl of additional lysis buffere to each well) of the MagNA Pure LC, which is programmed to extract mRNA using oligo-dT selection technology into a final elution volume of 100 μl. Poly A(+) RNA sample concentration was performed using a standard ethanol precipitation protocol in the presence of glycogen (50 μg/ml).

male Sprague-Dawley rats = assay: Cholesterol Lowering Index: total blood cholesterol (clinical chemistry) in treated versus vehicle-treated rats; assay type: in vivo, rat; conditions: for Cholesterol Index (fold reduction): Table 4; for Cholesterol Index (fold reduction) / Chol index (fold reduction): male rats; for Chol index (fold reduction): vs vehicle; for reduction in cholesterol: extremes of the twenty treatments of table 1, treated versus untreated rats
Text: Compound dosing was based on the acute dose LD50s recorded in published reference or literature sources. […] The MTD (maximum tolerated dose) was then selected as the dose at which the animals […] 5-10% body weight during the 5-day range finding study. […] In addition, the clinical observations must show no or mild clinical signs during the whole of the range-finding study. At the next highest dose, signs and symptoms of adverse effects and exceeding those of the MTD should be seen to occur. Should these criteria not be met, the range-finding study is repeated using a modified dose range.
as §1
as §2, with “Corp).” for “Corp). The amount of lysis buffer was adjusted to allow 1 ml per 50 mg for liver tissue, or 1 ml per 80 mg for all other tissues. After complete homogenization and before loading of the samples into the 32-well MagNA Pure plate, the samples were syringed 5-6 times using a 20-gauge 3-ml syringe to ensure a smooth solution for robotic processing. Tissue sample processing was performed in duplicate wells (loading 150 μl of homogenized sample and 150 μl of additional lysis buffere to each well) of the MagNA Pure LC, which is programmed to extract mRNA using oligo-dT selection technology into a final elution volume of 100 μl. Poly A(+) RNA sample concentration was performed using a standard ethanol precipitation protocol in the presence of glycogen (50 μg/ml).”

rat = conditions: ovarectomized female rats; cited from earlier work

With C[C@@H]1C[C@H]2[C@@H]3CCC4=CC(=O)C=C[C@]4(C)[C@@]3(F)[C@@H](O)C[C@]2(C)[C@@]1(O)C(=O)CO [DEXAMETHASONE] the SPS (livers of rats; dose 1 (mg/ml), time point 3 days) was 49.5 and the “Cholesterol Index (fold reduction)” value (male Sprague-Dawley rats; dose 1, time point 3 days) was 0.9 fold reduction.

In the case of C[C@]12CC[C@@H]3c4ccc(O)cc4CC[C@H]3[C@@H]1CC[C@@H]2O [BETA-ESTRADIOL, (17β)-estra-1,3,5(10)-triene-3,17-diol], the SPS (livers of rats; dose 150 (mg/ml), time point 1 day) is reported as 53, the SPS (livers of rats; dose 150 (mg/ml), time point 3 days) is reported as 63.4 and the SPS (livers of rats; dose 150 (mg/ml), time point 5 days) is reported as 63.7. For the same compound, the “Cholesterol Index (fold reduction)” value (male Sprague-Dawley rats; dose 150, time point 3 days) was 3.1 fold reduction, the “Cholesterol Index (fold reduction)” value (male Sprague-Dawley rats; dose 150, time point 5 days) was 4.7 fold reduction and the “Chol index (fold reduction)” value (male Sprague-Dawley rats; dose 150, time 3 days) was 3.21 fold reduction. The “Chol index (fold reduction)” value (male Sprague-Dawley rats; dose 150, time 5 days) was 4.94 fold reduction.

In the case of O=C(c1ccc(OCCN2CCCCC2)cc1)c1c(-c2ccc(O)cc2)sc2cc(O)ccc12 [RALOXIFENE, [6-hydroxy-2-(4-hydroxyphenyl)-3-(4-[2-piperidin-1-yl)ethoxy]benzoyl)-benzo[b]thiene], the effect on cholesterol (rat) is listed as “lower cholesterol” and the “Chol index (fold reduction)” value (male Sprague-Dawley rats; dose 6.5, time 5 days) is listed as 2.61 fold reduction.

For CCOC(=O)C(C)(C)Oc1ccc(Cl)cc1 [CLOFIBRATE, 2-(4-chlorophenoxy)-2-methylpropanoic acid ethyl ester], the “Chol index (fold reduction)” value (male Sprague-Dawley rats; dose 500, time 3 days) was 2.43 fold reduction.

In the case of C[C@]12CC[C@@H]3c4ccc(OC(=O)c5ccccc5)cc4CC[C@H]3[C@@H]1CC[C@@H]2O [BETA-ESTRADIOL 3-BENZOATE], the SPS (livers of rats; dose 2 (mg/ml), time point 3 days) is reported as 46.4 and the “Cholesterol Index (fold reduction)” value (male Sprague-Dawley rats; dose 2, time point 3 days) is reported as 2.0 fold reduction.

In the case of C#C[C@]1(O)CC[C@H]2[C@@H]3CCC4=CC(=O)CC[C@@H]4[C@H]3CC[C@@]21C [NORETHINDRONE, (17α)-17-hydroxy-19-norpregn-4-en-20-yn-3-one], the “Cholesterol Index (fold reduction)” value (male Sprague-Dawley rats; dose 375, time point 3 days) is reported as 3.5 fold reduction, the “Chol index (fold reduction)” value (male Sprague-Dawley rats; dose 375, time 3 days) is reported as 3.56 fold reduction and the “Chol index (fold reduction)” value (male Sprague-Dawley rats; dose 375, time 5 days) is reported as 3.06 fold reduction.

For OC(Cn1cncn1)(Cn1cncn1)c1ccc(F)cc1F [FLUCONAZOLE, α-(2,4-difluorophenyl)-α-(1H-1,2,4-triazol-1-ylmethyl)-1H-1,2,4-triazole-1-ethanol], the SPS (livers of rats; dose 394 (mg/ml), time point 5 days) was 59.7, the “Cholesterol Index (fold reduction)” value (male Sprague-Dawley rats; dose 394, time point 5 days) was 3.7 fold reduction and the “Chol index (fold reduction)” value (male Sprague-Dawley rats; dose 394, time 5 days) was 3.94 fold reduction.

With C#C[C@]1(OC(C)=O)CC[C@H]2[C@@H]3CCC4=CC(=O)CC[C@@H]4[C@H]3CC[C@@]21C [NORETHINDRONE ACETATE] the SPS (livers of rats; dose 125 (mg/ml), time point 1 day) was 58.8, the SPS (livers of rats; dose 125 (mg/ml), time point 3 days) was 81.6 and the SPS (livers of rats; dose 125 (mg/ml), time point 5 days) was 80.7. The “Cholesterol Index (fold reduction)” value (male Sprague-Dawley rats; dose 125, time point 3 days) was 2.0 fold reduction, the “Cholesterol Index (fold reduction)” value (male Sprague-Dawley rats; dose 125, time point 5 days) was 4.0 fold reduction and the “Chol index (fold reduction)” value (male Sprague-Dawley rats; dose 125, time 5 days) was 4.07 fold reduction.

In the case of CC[C@H](C)C(=O)O[C@H]1C[C@@H](C)C=C2C=C[C@H](C)[C@H](CC[C@@H]3C[C@@H](O)CC(=O)O3)[C@H]21 (relative stereo) [LOVASTATIN, (1S-(1α(R*),3α,7β,8β(2S*,4S*)-8αβ)-2-methylbutanoic acid 1,2,3,7,8,8a-hexahydro-3,7-dimethyl-8-(2-(tetrahydro-4-hydroxy-6-oxo-2H-pyran-2-yl)ethyl)-1-naphthalenyl ester], the “Chol index (fold reduction)” value (male Sprague-Dawley rats; dose 450, time 5 days) is reported as 2.39 fold reduction and the reduction in cholesterol (male Sprague-Dawley rats) is reported as 2 fold.

C[C@]12CC[C@@H]3c4ccc(O)cc4CC[C@H]3[C@@H]1C[C@@H](O)[C@@H]2O [ESTRIOL, (16α, 17β)-estra-1,3,5(10)-triene-3,16,17-triol] gave an SPS (livers of rats; dose 313 (mg/ml), time point 1 day) of 51.5, an SPS (livers of rats; dose 313 (mg/ml), time point 3 days) of 65.1 and an SPS (livers of rats; dose 313 (mg/ml), time point 5 days) of 83.4. For the same compound, the “Cholesterol Index (fold reduction)” value (male Sprague-Dawley rats; dose 313, time point 3 days) was 3.2 fold reduction, the “Cholesterol Index (fold reduction)” value (male Sprague-Dawley rats; dose 313, time point 5 days) was 20.9 fold reduction and the “Chol index (fold reduction)” value (male Sprague-Dawley rats; dose 313, time 3 days) was 3.30 fold reduction. For the same compound, the “Chol index (fold reduction)” value (male Sprague-Dawley rats; dose 313, time 5 days) was 20.28 fold reduction and the reduction in cholesterol (male Sprague-Dawley rats) was 20 fold.

Compound CC/C(=C(/CC)c1ccc(O)cc1)c1ccc(O)cc1 [DIETHYLSTILBESTROL, 3,4-bis-(4-hydroxyphenyl)-3-hexene] has an SPS (livers of rats; dose 2.8 (mg/ml), time point 1 day) of 57.3, an SPS (livers of rats; dose 2.8 (mg/ml), time point 3 days) of 71.2 and an SPS (livers of rats; dose 2.8 (mg/ml), time point 5 days) of 80.9. The SPS (livers of rats; dose 300 (mg/ml), time point 1 day) was 59, the SPS (livers of rats; dose 300 (mg/ml), time point 3 days) was 83.3 and the SPS (livers of rats; dose 300 (mg/ml), time point 5 days) was 91.1. For the same compound, the “Cholesterol Index (fold reduction)” value (male Sprague-Dawley rats; dose 2.8, time point 3 days) was 3.0 fold reduction, the “Cholesterol Index (fold reduction)” value (male Sprague-Dawley rats; dose 2.8, time point 5 days) was 3.4 fold reduction and the “Chol index (fold reduction)” value (male Sprague-Dawley rats; dose 2.8, time 3 days) was 3.10 fold reduction. The “Chol index (fold reduction)” value (male Sprague-Dawley rats; dose 2.8, time 5 days) was 3.56 fold reduction.
